Test results as given in PMC8708872, “Discovery of a Novel Template, 7-Substituted 7-Deaza-4′-Thioadenosine Derivatives as Multi-Kinase Inhibitors” (Pharmaceuticals, 2021).

How the values were obtained:
[1] = tested on: human normal dermal fibroblast cells; experiment: Antiproliferative activity against normal cells; format: cell-based; settings: cultured human normal primary dermal fibroblast cells; read-out: IC50 growth inhibition, normal dermal fibroblast cells
ACHN = experiment: Antiproliferative activity against ACHN; format: cell-based; settings: Homo sapiens, renal cancer cell line expressing CK1δ and DYRK2, read-out: IC50 cell growth of ACHN
cancer cells = experiment: Antiproliferative activity against cancer cells (six lines, SRB); format: cell-based; settings: Homo sapiens; range over the six cancer cell lines of Table 1
Procedure: Human lung cancer cells (A549), colorectal cancer (HCT116) cells, breast cancer cells (MDA-MB-231), liver cancer cells (SK-HEP-1), and prostate cancer cells (PC-3) were purchased from the American Type Culture Collection (Manassas, VA, USA). Human gastric cancer cells (SNU-638) were purchased from the Korean Cell Line Bank (Seoul, Korea). Cells were cultured in medium (Dulbecco’s modified Eagle’s medium for MDA-MB-231 and SK-HEP-1 cells; Roswell Park Memorial Institute 1640 for A549, HCT116, SNU-638, PC-3 cells) supplemented with penicillin-streptomycin and 10% fetal bovine serum at 37 °C in a humidified incubator with 5% carbon dioxide. Cells were seeded at a density of 4–7 × 10^4 cells/mL in 96-well culture plates, and then treated with indicated compounds for 72 h. At the end of the experiment, cells were fixed with 10% trichloroacetic acid (TCA) solution and subjected to sulforhodamine B (SRB) assay to determine cell proliferation. The percentage of cell proliferation was calculated with the following formula:Cell proliferation (%) = 100 × [(A treated − A zero day)/(A control − A zero day)], where A is the average absorbance. The IC50 values were calculated through non-linear regression analysis using TableCurve 2D v5.01 (Systat Software Inc., San Jose, CA, USA). All experiments were performed in triplicate and data shown are representative of two or three independent experiments.

CYP2D6 = molecular target: T1, CYP2D6 (Homo sapiens, UniProt P10635); experiment: CYP inhibition assay; format: in vitro ADME; settings: human liver microsomes
T1 construct: Human liver microsomes (0.25 mg/mL); from tissue; host or cells: human liver microsomes
T1 sequence (P10635 whole entry): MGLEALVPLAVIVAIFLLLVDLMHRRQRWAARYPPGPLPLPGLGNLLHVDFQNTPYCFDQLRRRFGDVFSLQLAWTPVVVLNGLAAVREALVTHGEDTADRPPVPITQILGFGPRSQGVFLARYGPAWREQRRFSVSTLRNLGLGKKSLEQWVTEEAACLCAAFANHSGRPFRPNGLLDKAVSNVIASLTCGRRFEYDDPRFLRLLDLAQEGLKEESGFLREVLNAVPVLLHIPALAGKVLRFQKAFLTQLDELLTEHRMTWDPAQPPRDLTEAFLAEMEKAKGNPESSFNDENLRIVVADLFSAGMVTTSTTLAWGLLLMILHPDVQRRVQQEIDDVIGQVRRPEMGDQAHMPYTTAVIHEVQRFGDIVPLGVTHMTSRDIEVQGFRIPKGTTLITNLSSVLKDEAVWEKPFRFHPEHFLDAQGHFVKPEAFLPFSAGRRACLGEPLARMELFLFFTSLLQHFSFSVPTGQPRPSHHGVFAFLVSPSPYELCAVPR

TRKA = molecular target: T2, TRKA (Homo sapiens, UniProt P04629); experiment: Kinase inhibition profile, KINOMEscan 11-point dose response; format: binding
T2 construct: purchased Eurofins DiscoverX Corporation
T2 sequence (P04629 33-796): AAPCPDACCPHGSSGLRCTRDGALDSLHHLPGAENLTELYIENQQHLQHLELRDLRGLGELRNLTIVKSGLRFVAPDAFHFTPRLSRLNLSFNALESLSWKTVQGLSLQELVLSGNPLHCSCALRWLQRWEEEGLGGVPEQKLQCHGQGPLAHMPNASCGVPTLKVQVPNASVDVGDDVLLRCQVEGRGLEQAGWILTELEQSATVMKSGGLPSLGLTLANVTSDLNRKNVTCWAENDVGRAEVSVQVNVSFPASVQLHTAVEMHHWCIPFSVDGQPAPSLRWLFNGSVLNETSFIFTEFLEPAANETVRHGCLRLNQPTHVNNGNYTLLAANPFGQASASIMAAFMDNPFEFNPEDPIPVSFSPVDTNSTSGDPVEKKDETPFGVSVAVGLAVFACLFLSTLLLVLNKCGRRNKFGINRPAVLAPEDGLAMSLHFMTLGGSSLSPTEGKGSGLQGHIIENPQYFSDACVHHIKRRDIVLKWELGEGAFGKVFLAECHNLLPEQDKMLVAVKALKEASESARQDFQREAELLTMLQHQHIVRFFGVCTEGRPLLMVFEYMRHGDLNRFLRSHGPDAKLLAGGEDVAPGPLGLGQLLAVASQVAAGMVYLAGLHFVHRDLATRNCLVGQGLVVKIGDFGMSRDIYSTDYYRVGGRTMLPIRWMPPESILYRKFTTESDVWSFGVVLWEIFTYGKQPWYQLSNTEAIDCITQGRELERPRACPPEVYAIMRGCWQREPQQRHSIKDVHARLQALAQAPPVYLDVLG

DYRK1A = molecular target: T3, DYRK1A (Homo sapiens, UniProt Q13627); experiment: as above; format: binding
T3 construct: purchased Eurofins DiscoverX Corporation

DYRK1B = molecular target: T4, DYRK1B (Homo sapiens, UniProt Q9Y463); experiment: as above; format: binding
T4 construct: purchased Eurofins DiscoverX Corporation
T4 sequence (Q9Y463 whole entry): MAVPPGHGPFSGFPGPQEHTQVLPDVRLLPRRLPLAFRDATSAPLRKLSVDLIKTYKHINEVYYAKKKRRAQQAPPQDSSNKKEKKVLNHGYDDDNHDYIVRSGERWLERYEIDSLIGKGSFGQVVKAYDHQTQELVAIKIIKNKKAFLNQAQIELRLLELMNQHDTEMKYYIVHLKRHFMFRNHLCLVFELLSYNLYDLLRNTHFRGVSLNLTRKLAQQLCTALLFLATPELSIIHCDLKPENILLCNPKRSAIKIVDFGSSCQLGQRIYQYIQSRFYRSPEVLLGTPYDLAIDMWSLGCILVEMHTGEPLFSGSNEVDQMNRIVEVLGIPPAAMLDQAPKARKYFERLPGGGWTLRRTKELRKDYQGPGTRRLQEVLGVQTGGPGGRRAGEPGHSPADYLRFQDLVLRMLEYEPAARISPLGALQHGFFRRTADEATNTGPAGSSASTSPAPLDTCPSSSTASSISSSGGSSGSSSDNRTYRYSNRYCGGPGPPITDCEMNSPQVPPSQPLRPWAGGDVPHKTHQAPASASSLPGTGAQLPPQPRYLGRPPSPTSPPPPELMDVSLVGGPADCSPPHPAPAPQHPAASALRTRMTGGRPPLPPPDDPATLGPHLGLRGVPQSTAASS

[2] = 11-point 3-fold serial dilution

C#Cc1cn([C@@H]2S[C@H](CO)[C@@H](O)[C@H]2O)c2ncnc(N)c12 [Compound 1g, (2R,3R,4S,5R)-2-(4-Amino-5-ethynyl-7H-pyrrolo[2,3-d]pyrimidin-7-yl)-5-(hydroxymethyl)tetrahydrothiophene-3,4-diol]
IC50 [1]: 150 nM | IC50 (ACHN): ~40 nM | IC50 (cancer cells): 4 to 60 nM | IC50 (CYP2D6): > 20000 nM | IC50 (TRKA; [2]): 148 nM | Ki (TRKA; by Cheng-Prusoff equation): 296 nM | IC50 (DYRK1A; [2]): 43 nM | Ki (DYRK1A; by Cheng-Prusoff equation): 86 nM | IC50 (DYRK1B; [2]): 33 nM | Ki (DYRK1B; by Cheng-Prusoff equation): 33 nM
